Test: PCNB concentration after gamma irradiation in samples of P. quinquefolium and in methanol solution
Assay type: physicochemical
Conditions: for concentration of the remaining PCNB / concentration of the remaining PCNB as compared to before treatment: 2 ppm PCNB in methanol solution
[1] = P. quinquefolium samples containing 2 ppm PCNB, 20 kGy

## O=[N+]([O-])c1c(Cl)c(Cl)c(Cl)c(Cl)c1Cl [PCNB, pentachloronitrobenzene]
20 kGy
  concentration of the remaining PCNB: 0.056 ppm
  concentration of the remaining PCNB as compared to before treatment: 2.79%
25 kGy
  concentration of the remaining PCNB: 0.008 ppm
  concentration of the remaining PCNB as compared to before treatment: 0.86%
[1]
  PCNB concentration as % of the original concentration: 4.01%
  PCNB concentration remaining: 0.08 ppm

From patent US20070281046A1, “Method for removing organic contaminants from Chinese herb medicines” (Committee on Chinese Medicine and Pharmacy, Department of …, priority 2006, published 2007)
